This data set is described as follows: Hepatic Stability Assay (in vitro half-life method). Set-up: dose or concentration left out as unconfirmed. Conditions: pooled cryopreserved hepatocytes, 37° C., 1×10^6 cells/mL, 0-6 hours, LC-MS/MS, 39.5 hours is the maximum detectable half life, read-out: t½ (converted). Type of data set: in vitro ADME. On the procedure:
Hepatic Stability Assay The metabolic stability of certain compounds disclosed herein was assessed in vitro in pooled cryopreserved hepatocytes using the in vitro half-life method. Incubations were at 37° C. and final concentrations in the incubations were 1×10^6 cells/mL and […] test concentration of the compound. Aliquots were sequentially removed after 0, 1, 3 and 6 hours and analyzed by LC-MS/MS. In vitro half-life was determined by measuring the rate of disappearance of the compound and then scaled to predicted hepatic clearance using the well-stirred model. […] As such, compounds having a value of 39.5 may have a half live that exceeds 39.5 hours.
As to `Cc1c(C(=O)C(=O)N[C@H](C)C(F)(F)F)c2n(c1C(=O)Nc1ccc(F)c(Cl)c1)C(C)(C)CC2` [Example 17, (R)—N-(3-chloro-4-fluorophenyl)-3,3,6-trimethyl-7-(2-oxo-2-((1,1,1-trifluoropropan-2-yl)amino)acetyl)-2,3-dihydro-1H-pyrrolizine-5-carboxamide], the half-life is 0.6 h. For `Cc1c(C(=O)C(=O)NC2(c3c[nH]nn3)CC(F)(F)C2)c2n(c1C(=O)Nc1ccnc(C(F)F)c1F)CCC2` [Example 59, 7-(2-((3,3-difluoro-1-(1H-1,2,3-triazol-4-yl)cyclobutyl)amino)-2-oxoacetyl)-N-(2-(difluoromethyl)-3-fluoropyridin-4-yl)-6-methyl-2,3-dihydro-1H-pyrrolizine-5-carboxamide] the value was 22.3 h.

As for `Cc1c(C(=O)C(=O)NC2(CO)CC(F)(F)C2)c2n(c1C(=O)Nc1ccc(F)c(F)c1)CCC2` [Example 118, 7-(2-((3,3-difluoro-1-(hydroxymethyl)cyclobutyl)amino)-2-oxoacetyl)-N-(3,4-difluorophenyl)-6-methyl-2,3-dihydro-1H-pyrrolizine-5-carboxamide], the half-life was 15.2 h. The same measure for `Cc1c(C(=O)C(=O)NC2(c3nncs3)CC2)c2n(c1C(=O)Nc1ccc(F)c(C#N)c1)[C@@H]1C[C@@H]1C2` [Example 58, (1aR,6aR)-5-(2-((1-(1,3,4-thiadiazol-2-yl)cyclopropyl)amino)-2-oxoacetyl)-N-(3-cyano-4-fluorophenyl)-4-methyl-1,1a,6,6a-tetrahydrocyclopropa[b]pyrrolizine-3-carboxamide]: 38.5 h; for `Cc1c(C(=O)C(=O)N[C@H](C)C(F)(F)F)c2n(c1C(=O)Nc1ccc(F)c(Cl)c1)CCC2` [Example 2, (R)—N-(3-chloro-4-fluorophenyl)-6-methyl-7-(2-oxo-2-((1,1,1-trifluoropropan-2-yl)amino)acetyl)-2,3-dihydro-1H-pyrrolizine-5-carboxamide]: 15 h. For `CNC(=O)C1(NC(=O)C(=O)c2c(C)c(C(=O)Nc3ccc(F)c(Cl)c3)n3c2CCC3(C)C)CC(F)(F)C1` [Example 15, N-(3-chloro-4-fluorophenyl)-7-(2-((3,3-difluoro-1-(methylcarbamoyl)cyclobutyl)amino)-2-oxoacetyl)-3,3,6-trimethyl-2,3-dihydro-1H-pyrrolizine-5-carboxamide] the value was 0.5 h.

As to `Cc1c(C(=O)C(=O)NC2(c3c[nH]nn3)CC2)c2n(c1C(=O)Nc1ccc(F)c(F)c1)CCC2` [Example 43, 7-(2-((1-(1H-1,2,3-triazol-4-yl)cyclopropyl)amino)-2-oxoacetyl)-N-(3,4-difluorophenyl)-6-methyl-2,3-dihydro-1H-pyrrolizine-5-carboxamide], the half-life is 16 h. The same measure for `Cc1c(C(=O)C(=O)NC2(c3c[nH]nn3)CC(F)(F)C2)c2n(c1C(=O)Nc1ccnc(C(F)F)c1)CCC2` [Example 55, 7-(2-((3,3-difluoro-1-(1H-1,2,3-triazol-4-yl)cyclobutyl)amino)-2-oxoacetyl)-N-(2-(difluoromethyl)pyridin-4-yl)-6-methyl-2,3-dihydro-1H-pyrrolizine-5-carboxamide]: 15.5 h; for `Cc1c(C(=O)C(=O)NC2(c3nncs3)CC2)c2n(c1C(=O)Nc1ccc(F)c(F)c1)[C@@H]1C[C@@H]1C2` [Example 61, (1aR,6aR)-5-(2-((1-(1,3,4-thiadiazol-2-yl)cyclopropyl)amino)-2-oxoacetyl)-N-(3,4-difluorophenyl)-4-methyl-1,1a,6,6a-tetrahydrocyclopropa[b]pyrrolizine-3-carboxamide]: 5.4 h; for `CNC(=O)C1(NC(=O)C(=O)c2c(C)c(C(=O)Nc3ccc(F)c(Cl)c3F)n3c2CCC3)CC(F)(F)C1` [Example 127, N-(3-chloro-2,4-difluorophenyl)-7-(2-((3,3-difluoro-1-(methylcarbamoyl)cyclobutyl)amino)-2-oxoacetyl)-6-methyl-2,3-dihydro-1H-pyrrolizine-5-carboxamide]: 15.2 h. Take `Cc1nnc(C2(NC(=O)C(=O)c3c(C)c(C(=O)Nc4ccc(F)c(Cl)c4)n4c3CCC4)CC2)o1` [Example 64, N-(3-chloro-4-fluorophenyl)-6-methyl-7-(2-((1-(5-methyl-1,3,4-oxadiazol-2-yl)cyclopropyl)amino)-2-oxoacetyl)-2,3-dihydro-1H-pyrrolizine-5-carboxamide]: the half-life is 13.2 h. For `Cc1c(C(=O)C(=O)NC2(C(F)(F)F)COC2)c2n(c1C(=O)Nc1ccnc(C(F)F)c1F)C[C@H](F)C2` [Example 150, (R)—N-(2-(difluoromethyl)-3-fluoropyridin-4-yl)-2-fluoro-6-methyl-7-(2-oxo-2-((3-(trifluoromethyl)oxetan-3-yl)amino)acetyl)-2,3-dihydro-1H-pyrrolizine-5-carboxamide] the value was 16.6 h; for `CNC(=O)C1(NC(=O)C(=O)c2c(C)c(C(=O)Nc3ccc(F)c(Cl)c3)n3c2CCC3)CC(F)(F)C1` [Example 3, N-(3-chloro-4-fluorophenyl)-7-(2-((3,3-difluoro-1-(methylcarbamoyl)cyclobutyl)amino)-2-oxoacetyl)-6-methyl-2,3-dihydro-1H-pyrrolizine-5-carboxamide], 35.1 h.

`Cc1c(C(=O)C(=O)NC2(C)C[S+]([O-])C2)c2n(c1C(=O)Nc1ccc(F)c(F)c1)CCC2` (stereo not drawn) [Example 145, N-(3,4-difluorophenyl)-6-methyl-7-(2-((3-methyl-1-oxidothietan-3-yl)amino)-2-oxoacetyl)-2,3-dihydro-1H-pyrrolizine-5-carboxamide]: the half-life was 9.7 h.

Regarding `Cc1c(C(=O)C(=O)NC2(c3c[nH]nn3)CC2)c2n(c1C(=O)Nc1cccc(F)c1)CCC2` [Example 69, 7-(2-((1-(1H-1,2,3-triazol-4-yl)cyclopropyl)amino)-2-oxoacetyl)-N-(3-fluorophenyl)-6-methyl-2,3-dihydro-1H-pyrrolizine-5-carboxamide], the half-life was 17 h. For `Cc1c(C(=O)C(=O)NC2(c3c[nH]nn3)CC(F)(F)C2)c2n(c1C(=O)Nc1ccnc(C(F)F)c1)[C@@H]1C[C@@H]1C2` [Example 78, (1aR,6aR)-5-(2-((3,3-difluoro-1-(1H-1,2,3-triazol-4-yl)cyclobutyl)amino)-2-oxoacetyl)-N-(2-(difluoromethyl)pyridin-4-yl)-4-methyl-1,1a,6,6a-tetrahydrocyclopropa[b]pyrrolizine-3-carboxamide] the value was 4.8 h.

In the case of `Cc1c(C(=O)C(=O)NC2(C(F)(F)F)COC2)c2n(c1C(=O)Nc1ccnc(C(F)F)c1)[C@@H]1C[C@@H]1C2` [Example 119, (1aR,6aR)—N-(2-(difluoromethyl)pyridin-4-yl)-4-methyl-5-(2-oxo-2-((3-(trifluoromethyl)oxetan-3-yl)amino)acetyl)-1,1a,6,6a-tetrahydrocyclopropa[b]pyrrolizine-3-carboxamide], the half-life is 11 h.

For the molecule `Cc1c(C(=O)C(=O)NC2(c3c[nH]nn3)CC2)c2n(c1C(=O)Nc1ccc(F)c(C#N)c1)[C@@H]1C[C@@H]1C2` [Example 79, (1aR,6aR)-5-(2-((1-(1H-1,2,3-triazol-4-yl)cyclopropyl)amino)-2-oxoacetyl)-N-(3-cyano-4-fluorophenyl)-4-methyl-1,1a,6,6a-tetrahydrocyclopropa[b]pyrrolizine-3-carboxamide], the half-life is 14.9 h. For `Cc1c(C(=O)C(=O)NC2(C#N)CC(F)(F)C2)c2n(c1C(=O)Nc1ccc(F)c(F)c1)CCC2` [Example 131, 7-(2-((1-cyano-3,3-difluorocyclobutyl)amino)-2-oxoacetyl)-N-(3,4-difluorophenyl)-6-methyl-2,3-dihydro-1H-pyrrolizine-5-carboxamide] the value was 7.6 h; for `CNC(=O)C1(NC(=O)C(=O)c2c(C)c(C(=O)Nc3ccc(F)cc3)n3c2C[C@H]2C[C@H]23)CC(F)(F)C1` [Example 95, (1aR,6aR)-5-(2-((3,3-difluoro-1-(methylcarbamoyl)cyclobutyl)amino)-2-oxoacetyl)-N-(4-fluorophenyl)-4-methyl-1,1a,6,6a-tetrahydrocyclopropa[b]pyrrolizine-3-carboxamide], 28.8 h. `Cc1nnc(C2(NC(=O)C(=O)c3c(C)c(C(=O)Nc4cc(F)c(F)c(F)c4)n4c3CCC4)CC2)o1` [Example 65, 6-methyl-7-(2-((1-(5-methyl-1,3,4-oxadiazol-2-yl)cyclopropyl)amino)-2-oxoacetyl)-N-(3,4,5-trifluorophenyl)-2,3-dihydro-1H-pyrrolizine-5-carboxamide]: the half-life is 14.8 h.

Turning to `Cc1c(C(=O)C(=O)N[C@H](C)C(F)(F)F)c2n(c1C(=O)Nc1ccc(F)c(Cl)c1)C(C)CC2` (single isomer, unassigned) [Example 24], the half-life is 5 h.

Take `Cc1c(C(=O)C(=O)NC2(c3c[nH]nn3)CC2)c2n(c1C(=O)Nc1ccnc(C(F)F)c1F)[C@@H]1C[C@@H]1C2` [Example 63, (1aR,6aR)-5-(2-((1-(1H-1,2,3-triazol-4-yl)cyclopropyl)amino)-2-oxoacetyl)-N-(2-(difluoromethyl)-3-fluoropyridin-4-yl)-4-methyl-1,1a,6,6a-tetrahydrocyclopropa[b]pyrrolizine-3-carboxamide]: the half-life is 11.2 h. Regarding `CNC(=O)C1(NC(=O)C(=O)c2c(C)c(C(=O)Nc3ccc(F)c(Cl)c3)n3c2C[C@H]2C[C@H]23)CC(F)(F)C1` [Example 5, (1aR,6aR)—N-(3-chloro-4-fluorophenyl)-5-(2-((3,3-difluoro-1-(methylcarbamoyl)cyclobutyl)amino)-2-oxoacetyl)-4-methyl-1,1a,6,6a-tetrahydrocyclopropa[b]pyrrolizine-3-carboxamide], the half-life is 5.2 h.

For the origin of these results see patent US10328053B2 (Gilead Sciences, Inc., priority 2016, dated 2019).
